{"source": "patent US20170182033A1", "about": "“PHARMACEUTICAL COMPOSITIONS FOR EXTENDED RELEASE OF OXYCODONE AND ACETAMINOPHEN RESULTING IN A QUICK ONSET AND PROLONGED PERIOD OF ANALGESIA” (priority 2011, published 2017)", "key": {"[1]": {"assay": "Ethanol release testing at 100 rpm paddle speed (Example 29)", "format": "physicochemical", "settings": "release from the formulation"}, "hepatic GSH": {"system": "hepatic GSH", "settings": "mice; 100 mg/kg to 600 mg/kg; cited from earlier work"}}, "data": [{"smiles": "CC(=O)Nc1ccc(O)cc1", "note": "[acetaminophen]", "values": [{"measurement": "Percent Release, Mean", "setting": "[1]; 0% Ethanol, 15 Min", "result": 52.2, "unit": "%"}, {"measurement": "Percent Release, Mean", "setting": "[1]; 0% Ethanol, 30 Min", "result": 54.6, "unit": "%"}, {"measurement": "Percent Release, Mean", "setting": "[1]; 0% Ethanol, 45 Min", "result": 56.8, "unit": "%"}, {"measurement": "Percent Release, Mean", "setting": "[1]; 0% Ethanol, 60 Min", "result": 58.8, "unit": "%"}, {"measurement": "Percent Release, Mean", "setting": "[1]; 0% Ethanol, 75 Min", "result": 60.8, "unit": "%"}, {"measurement": "Percent Release, Mean", "setting": "[1]; 0% Ethanol, 90 Min", "result": 62.6, "unit": "%"}, {"measurement": "Percent Release, Mean", "setting": "[1]; 0% Ethanol, 105 Min", "result": 64.3, "unit": "%"}, {"measurement": "Percent Release, Mean", "setting": "[1]; 0% Ethanol, 120 Min", "result": 66.0, "unit": "%"}, {"measurement": "Percent Release, Mean", "setting": "[1]; 0% Ethanol, 240 Min", "result": 78.6, "unit": "%"}, {"measurement": "Percent Release, Mean", "setting": "[1]; 0% Ethanol, 480 Min", "result": 95.5, "unit": "%"}, {"measurement": "Percent Release, Mean", "setting": "[1]; 5% Ethanol, 15 Min", "result": 52.6, "unit": "%"}, {"measurement": "Percent Release, Mean", "setting": "[1]; 5% Ethanol, 30 Min", "result": 55.1, "unit": "%"}, {"measurement": "Percent Release, Mean", "setting": "[1]; 5% Ethanol, 45 Min", "result": 57.1, "unit": "%"}, {"measurement": "Percent Release, Mean", "setting": "[1]; 5% Ethanol, 60 Min", "result": 58.9, "unit": "%"}, {"measurement": "Percent Release, Mean", "setting": "[1]; 5% Ethanol, 75 Min", "result": 60.7, "unit": "%"}, {"measurement": "Percent Release, Mean", "setting": "[1]; 5% Ethanol, 90 Min", "result": 62.3, "unit": "%"}, {"measurement": "Percent Release, Mean", "setting": "[1]; 5% Ethanol, 105 Min", "result": 63.9, "unit": "%"}, {"measurement": "Percent Release, Mean", "setting": "[1]; 5% Ethanol, 120 Min", "result": 65.5, "unit": "%"}, {"measurement": "Percent Release, Mean", "setting": "[1]; 5% Ethanol, 240 Min", "result": 77.2, "unit": "%"}, {"measurement": "Percent Release, Mean", "setting": "[1]; 5% Ethanol, 480 Min", "result": 94.4, "unit": "%"}, {"measurement": "Percent Release, Mean", "setting": "[1]; 10% Ethanol, 15 Min", "result": 51.7, "unit": "%"}, {"measurement": "Percent Release, Mean", "setting": "[1]; 10% Ethanol, 30 Min", "result": 54.1, "unit": "%"}, {"measurement": "Percent Release, Mean", "setting": "[1]; 10% Ethanol, 45 Min", "result": 56.0, "unit": "%"}, {"measurement": "Percent Release, Mean", "setting": "[1]; 10% Ethanol, 60 Min", "result": 57.8, "unit": "%"}, {"measurement": "Percent Release, Mean", "setting": "[1]; 10% Ethanol, 75 Min", "result": 59.5, "unit": "%"}, {"measurement": "Percent Release, Mean", "setting": "[1]; 10% Ethanol, 90 Min", "result": 61.1, "unit": "%"}, {"measurement": "Percent Release, Mean", "setting": "[1]; 10% Ethanol, 105 Min", "result": 62.6, "unit": "%"}, {"measurement": "Percent Release, Mean", "setting": "[1]; 10% Ethanol, 120 Min", "result": 64.1, "unit": "%"}, {"measurement": "Percent Release, Mean", "setting": "[1]; 10% Ethanol, 240 Min", "result": 75.5, "unit": "%"}, {"measurement": "Percent Release, Mean", "setting": "[1]; 10% Ethanol, 480 Min", "result": 93.5, "unit": "%"}, {"measurement": "Percent Release, Mean", "setting": "[1]; 20% Ethanol, 15 Min", "result": 50.2, "unit": "%"}, {"measurement": "Percent Release, Mean", "setting": "[1]; 20% Ethanol, 30 Min", "result": 53.4, "unit": "%"}, {"measurement": "Percent Release, Mean", "setting": "[1]; 20% Ethanol, 45 Min", "result": 55.5, "unit": "%"}, {"measurement": "Percent Release, Mean", "setting": "[1]; 20% Ethanol, 60 Min", "result": 57.3, "unit": "%"}, {"measurement": "Percent Release, Mean", "setting": "[1]; 20% Ethanol, 75 Min", "result": 59.0, "unit": "%"}, {"measurement": "Percent Release, Mean", "setting": "[1]; 20% Ethanol, 90 Min", "result": 60.5, "unit": "%"}, {"measurement": "Percent Release, Mean", "setting": "[1]; 20% Ethanol, 105 Min", "result": 61.9, "unit": "%"}, {"measurement": "Percent Release, Mean", "setting": "[1]; 20% Ethanol, 120 Min", "result": 63.3, "unit": "%"}, {"measurement": "Percent Release, Mean", "setting": "[1]; 20% Ethanol, 240 Min", "result": 76.0, "unit": "%"}, {"measurement": "Percent Release, Mean", "setting": "[1]; 20% Ethanol, 480 Min", "result": 91.9, "unit": "%"}, {"measurement": "Percent Release, Mean", "setting": "[1]; 40% Ethanol, 15 Min", "result": 16.7, "unit": "%"}, {"measurement": "Percent Release, Mean", "setting": "[1]; 40% Ethanol, 30 Min", "result": 30.4, "unit": "%"}, {"measurement": "Percent Release, Mean", "setting": "[1]; 40% Ethanol, 45 Min", "result": 38.5, "unit": "%"}, {"measurement": "Percent Release, Mean", "setting": "[1]; 40% Ethanol, 60 Min", "result": 43.1, "unit": "%"}, {"measurement": "Percent Release, Mean", "setting": "[1]; 40% Ethanol, 75 Min", "result": 46.1, "unit": "%"}, {"measurement": "Percent Release, Mean", "setting": "[1]; 40% Ethanol, 90 Min", "result": 48.3, "unit": "%"}, {"measurement": "Percent Release, Mean", "setting": "[1]; 40% Ethanol, 105 Min", "result": 49.8, "unit": "%"}, {"measurement": "Percent Release, Mean", "setting": "[1]; 40% Ethanol, 120 Min", "result": 51.1, "unit": "%"}, {"measurement": "Percent Release, Mean", "setting": "[1]; 40% Ethanol, 240 Min", "result": 60.8, "unit": "%"}, {"measurement": "Percent Release, Mean", "setting": "[1]; 40% Ethanol, 480 Min", "result": 77.2, "unit": "%"}, {"measurement": "Onset of circulating hepatic GSH changes after administration", "setting": "hepatic GSH", "result": "≤ 15", "unit": "min"}]}]}
